The subject of one experiment is Incap. Kind of experiment: MTT cancer cell growth inhibition. The format is cell-based. Conditions: 72 h.
For another experiment, the target named is HDAC1 (Homo sapiens, UniProt Q13547). The experiment can be described thus: Measurement of biochemical activities of HDAC (fluorescently-labeled acetylated lysine substrate). Conditions: read-out: IC50 HDAC1. In outline:
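For both HDAC isoforms, fluorescent acetyl-lysine substrate ([…] in reaction) incubated with enzyme and compounds for 30 min at 37; developer then added for 15 min at room temperature. Fluorescence read at excitation 360 nm, emission 460 nm.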

For another experiment, the system named is PANC-1. Kind of experiment: MTT cancer cell growth inhibition. Type of experiment: cell-based. Conditions: Homo sapiens, 72 h. In outline: (§1)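 Cells in DMEM or 1640 + 10% FBS, 1500 cells/well, overnight then treated 72 h at 37 °C, 5% CO2 with compound 10^−5–10^−10 M final (0.1% DMSO control). MTT added 4 h, formazan dissolved in DMSO, read at 570 nm; survival rate calculated.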

The subject of experiment [1] is MCF-7 (human breast cancer cells). The experiment can be described thus: MTT cancer cell growth inhibition. The format is cell-based. Conditions: MCF7, 72 h. In outline:
as §1

Experiment [2] concerns DU145 (human prostate cancer cells). The experiment can be described thus: MTT cancer cell growth inhibition. Type of experiment: cell-based. Conditions: DU-145, 72 h. In outline:
as §1

Experiment [3] concerns A549 (human lung cancer cells). The experiment can be described thus: MTT cancer cell growth inhibition. Type of experiment: cell-based. As to conditions: 72 h. In outline: as §1
For experiment [4], the system named is Hela (human cervical cancer cells). Kind of experiment: MTT cancer cell growth inhibition. The format is cell-based. As to conditions: 72 h. In outline:
as §1

The subject of experiment [5] is BGC-823 (human gastric cancer cells). The experiment can be described thus: MTT cancer cell growth inhibition. Type of experiment: cell-based. As to conditions: 72 h, read-out: GI50 BGC823. In outline: as §1
Experiment [6] concerns U937 (human leukemia cells). The experiment can be described thus: MTT cancer cell growth inhibition. Conditions: U-937, 72 h. Type of experiment: cell-based. In outline:
as §1

Experiment [7] relates to MOLT-4 (human acute lymphoblastic leukemia cells). Kind of experiment: MTT cancer cell growth inhibition. Type of experiment: cell-based. As to conditions: 72 h. In outline: as §1
The test system of experiment [8] is HT1080 (human fibrosarcoma cells). Kind of experiment: MTT cancer cell growth inhibition. As to conditions: HT-1080, 72 h. The format is cell-based. In outline: as §1
The test system of experiment [9] is Human Lung Caner Cell NCI-H1975. The experiment can be described thus: Subcutaneously transplanted tumors in nude mice. The format is in vivo. Conditions: 20 mg/kg. As to the method:
(§2) Tumor tissues in the vigorous growth period are cut into about 1.5 mm^3, and inoculated to the right axilla subcutaneous layer of the nude mice under aseptic conditions. For the subcutaneously transplanted tumors of the nude mice, the diameter of the transplanted tumors is measured by a vernier caliper. The mice are randomly grouped after the tumors grow to 100-200 mm^3. […] The diameter of the transplanted tumors is measured twice per week in the whole experimental process, and meanwhile the weight of the mice is weighed. The calculation formula of tumor volume (TV) is TV=½×a×b^2, where a and b represent length and width, respectively.
(§3) The relative tumor volume (RTV) is calculated according to the measured results, with the following calculation formula: RTV=Vt/V0, where V0 is the tumor volume obtained by measurement during administration in different cages (i.e., d0), Vt is the tumor volume obtained by measurement at each time. […] (Wc−WT)Wc×100%, where Wc is the tumor weight of the control group, and WT is the tumor weight of the treatment group.

The subject of a further experiment is Human Melanoma Cell A875. Kind of experiment: Subcutaneously transplanted tumors in nude mice. Type of experiment: in vivo. Conditions: 20 mg/kg. As to the method: as §2, §3
For experiment [10], the system named is Human Gastric Adenocarcinoma Cell BGC-823. The experiment can be described thus: Subcutaneously transplanted tumors in nude mice. Type of experiment: in vivo. Conditions: 20 mg/kg. As to the method:
as §2, §3

For experiment [11], the system named is Human Blood Acute Monocytic Leukemia U937. The experiment can be described thus: Subcutaneously transplanted tumors in nude mice. Type of experiment: in vivo. As to conditions: 20 mg/kg. Here is the method: as §2, §3
The subject of experiment [12] is Human Lymphoma Cell Ramos. The experiment can be described thus: Subcutaneously transplanted tumors in nude mice. Conditions: 20 mg/kg. The format is in vivo. As to the method:
as §2, §3

Sequence of HDAC1 (Q13547 whole entry, species assumed, canonical isoform): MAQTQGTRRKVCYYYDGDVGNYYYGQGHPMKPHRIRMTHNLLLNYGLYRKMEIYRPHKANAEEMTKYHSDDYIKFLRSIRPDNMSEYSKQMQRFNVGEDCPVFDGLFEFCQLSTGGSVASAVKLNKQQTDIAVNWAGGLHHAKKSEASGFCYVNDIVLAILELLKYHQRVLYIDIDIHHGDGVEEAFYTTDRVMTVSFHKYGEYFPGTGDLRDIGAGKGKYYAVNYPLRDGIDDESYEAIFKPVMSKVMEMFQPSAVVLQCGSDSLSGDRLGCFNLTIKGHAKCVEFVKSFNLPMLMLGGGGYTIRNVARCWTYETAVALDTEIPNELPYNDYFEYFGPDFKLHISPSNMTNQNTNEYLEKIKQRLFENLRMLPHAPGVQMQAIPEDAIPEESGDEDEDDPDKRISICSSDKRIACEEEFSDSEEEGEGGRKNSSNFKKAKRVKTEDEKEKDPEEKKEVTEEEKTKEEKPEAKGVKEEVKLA

`C/C=C1\NC(=O)c2csc(n2)CNC(=O)C[C@@H](/C=C/CCSC(=O)CCCCCCC)OC(=O)[C@H](Cc2ccccc2)NC1=O` [Compound 1-7]: the 50% growth inhibitory concentration (GI50) with Incap came out at 500 nM; with PANC-1, 1500 nM; in experiment [1], 700 nM; in experiment [2], 20 nM; in experiment [3], 400 nM; in experiment [4] it was 5000 nM. In addition, the GI50 in experiment [5] came to 300 nM; in experiment [6] it was 20 nM; in [7], 100 nM; in experiment [8], 300 nM. The IC50 on HDAC1 is less than 10000 nM.

Regarding `C/C=C1\NC(=O)c2csc(n2)CNC(=O)C[C@@H](/C=C/CCSC(=O)CCCCCCC)OC(=O)[C@H](Cc2ccc(O)cc2)NC1=O` [Compound 1-8], the GI50 with Incap came to 200 nM; with PANC-1 it was 100 nM; in [1] it was 100 nM; in experiment [2] it was 30 nM; in experiment [3] it was 100 nM; in experiment [4] it was 100 nM. Besides, the 50% growth inhibitory concentration (GI50) was determined as 300 nM in experiment [5], 20 nM in experiment [6], 20 nM in experiment [7] and 70 nM in experiment [8]. Further, the IC50 at HDAC1 was less than 102 nM. Also, the “Tumor Inhibition Rate (1 − T/C) × 100%” value in experiment [9] is listed as 53.23%; with Human Melanoma Cell A875 it was 68.07%; in [10], 56.83%; in [11], 68.32%; in [12] it was 58.33%.

For the molecule `C/C=C1\NC(=O)c2csc(n2)CNC(=O)C[C@@H](/C=C/CCSC(=O)CCCCCCC)OC(=O)[C@H](C(C)C)NC1=O` [Compound 1-3], the GI50 was found to be 2000 nM in the experiment with Incap; 6000 nM in the experiment on PANC-1; 1200 nM in experiment [1]; 300 nM in experiment [2]; 10000 nM in experiment [3]; 1000 nM in [4]. The GI50 was 60 nM in [5], 500 nM in experiment [6], 1000 nM in experiment [7] and 4000 nM in [8]. For the same molecule, the IC50 at HDAC1 was less than 10000 nM. Further, the “Tumor Inhibition Rate (1 − T/C) × 100%” value in experiment [9] was determined as 56.40%; in the experiment with Human Melanoma Cell A875, 63.89%; in experiment [10] it was 59.38%; in experiment [11], 65.21%; in experiment [12], 70.08%.

Consider `C/C=C1\NC(=O)c2csc(n2)CNC(=O)C[C@@H](/C=C/CCSC(=O)CCCCCCC)OC(=O)[C@H](C)NC1=O` [Compound 1-4], for which the GI50 in the experiment with Incap was found to be 200 nM; in the experiment on PANC-1 it was 1600 nM; in experiment [1], 200 nM; in experiment [2], 360 nM; in experiment [3], 2900 nM; in experiment [4] it was 1300 nM. Besides, the concentration for 50% growth inhibition (GI50) turned out to be 2500 nM in experiment [5], 30 nM in experiment [6], 100 nM in experiment [7] and 800 nM in experiment [8]. Besides, at HDAC1, the IC50 is less than 1000 nM.

Regarding `O=C(CCCCCCC(=O)Nc1ccccc1)NO` [SAHA, suberoylanilide hydroxamic acid, reference compound], the GI50 in the experiment on Incap worked out at 4560 nM; in the experiment with PANC-1 it was 7460 nM; in experiment [1], 1800 nM; in experiment [3], 7700 nM; in experiment [4], 37800 nM; in experiment [5], 4500 nM. The 50% growth inhibitory concentration (GI50) in [6] was found to be 2310 nM; in experiment [8], 3800 nM.

Consider `C/C=C1\NC(=O)c2csc(n2)CNC(=O)C[C@@H](/C=C/CCSC(=O)CCCCCCC)OC(=O)[C@H](C(C)(C)C)NC1=O` [Compound 1-6], for which the GI50 is 1200 nM with Incap; 3000 nM with PANC-1; 600 nM in [1]; 50 nM in [2]; 500 nM in experiment [3]; 1000 nM in experiment [4]. Also, the concentration for 50% growth inhibition (GI50) was found to be 400 nM in [5], 200 nM in experiment [6], 1000 nM in experiment [7] and 1300 nM in [8]. Besides, the IC50 on HDAC1 was less than 10000 nM. In addition, the “Tumor Inhibition Rate (1 − T/C) × 100%” value is listed as 59.19% in experiment [9]; 66.64% in the experiment with Human Melanoma Cell A875; 60.26% in experiment [10]; 66.37% in experiment [11]; 60.94% in experiment [12].

The term GI50 denotes the concentration at which growth is held to half of that of the control. The term IC50 denotes the concentration that gives 50% inhibition.

For the origin of these results see patent US8933195B2, “Histone deacetylase inhibitors and synthetic method thereof and use thereof in manufacture of medicaments” (Nanjing Yoko Biomedical R & D Ltd., priority 2011, dated 2015).
